{"source": "patent US20170198011A1", "about": "“COMPOSITION FOR TREATING SEPSIS OR SEPTIC SHOCK COMPRISING THE PEPTIDE ORIGINATED FROM THE SMAD6” (Medpacto, Inc., priority 2011, published 2017)", "key": {"[1]": {"tested_on": "IRAK1-, RIP1- or IKKε-mediated signaling complexes", "test": "Co-immunoprecipitation of LPS-induced TLR4 downstream signaling complexes in primary peritoneal macrophages", "format": "cell-based, mice", "description": "A co-immunoprecipitation assay was carried out as follows. For use as antibodies in co-immunoprecipitation, mouse anti-HA (F-7), mouse anti-c-Myc (9E10), rabbit anti-IκBα (C-21), mouse anti-IRAK1 (F-4), and mouse anti-TRAF6 (D-10) were purchased from Santa Cruz Biotechnology (USA), the antibodies rabbit anti-Pellino-1 and rabbit anti-IRAK4 from Imgenex, the antibodies rabbit anti-Smad6, rabbit anti-MyD88 (D80F5), rabbit anti-IKKα, rabbit anti-phospho-IKKα/β, rabbit anti-RIP1 (D94C12), rabbit anti-IKKi (anti-IKKE; D61F9), rabbit anti-TBK1 (D1B4), rabbit anti-GRK2 from Cell Signaling, and the antibody anti-β-actin from Sigma. Cells were lysed in a lysis buffer (PBS containing 0.5% Triton X-100, 20 mM HEPES (pH 7.4), 150 mM NaCl, 12.5 mM β-glycerol phosphate, 1.5 mM MgCl2, 10 mM NaF, 2 mM DTT, 1 mM Na3O4V, 2 mM EGTA, 1 mM PMSF and protease inhibitor mixture), and harvested by centrifuging 13,000 rpm for 10 min. For immunoprecipitation, the cell lysate were incubated at 4° C. for 12 hrs with protein-A agarose beads and the above-mentioned antibodies. Afterwards, the beads were washed three times with a lysis buffer, and treated with a 2× sample buffer to separate the co-immunoprecipitates therefrom. The co-immunoprecipitates were boiled, followed by SDS-PAGE.\nTo examine whether Smaducin-6 interrupts the formation of the downstream signaling complex of TLR4, the cells were pre-treated with Smaducin-6 in the same manner as in Example 1, and analyzed for the LPS-induced formation of the signaling complex using a co-immunoprecipitation method. For control, the same experiment was conducted with scrambled peptides."}, "GRK2": {"tested_on": "GRK2", "test": "LPS-induced GRK2 expression in human neutrophils (immunoblot)", "format": "cell-based", "details": "100 nM for 2 hrs, then LPS 2 hrs", "description": "To examine how Smaducin-6 interrupts with the LPS-induced downregulation of CXCR2, the levels of G-protein-coupled receptor kinase 2 (GRK2) in human neutrophils and RAW264.7 macrophages were measured. GRK2 is upregualted by LPS, which is known to suppress the expression of CXCR2."}, "[2]": {"tested_on": "BALB/c mice with CLP-induced sepsis", "test": "Survival of mice with CLP-induced sepsis", "format": "in vivo", "description": "For use in assay for therapeutic effects of Smaducin-6 on sepsis, BALB/c mice were subjected to CLP (cecal ligation puncture) to prepare suitable animal models of clinical sepsis. Two hours after CLP operation on the mice, Smaducin-6 was subcutaneously injected at a dose of 8 mg/kg, 12 mg/kg, or 16 mg/kg to the mice, and then three more times at regular intervals of 12 hrs. […] In this context, Smaducin-6 was initially injected at a dose of 16 mg/kg 2, 4, or 10 hrs after CLP operation, and then three more times at regular intervals of 12 hrs. Further, cells from various tissues of CLP mice were stained with hematoxylin-eosin to observe nucleus and cell morphology."}, "[3]": {"tested_on": "bacteria in peritoneal fluid", "test": "Bacterial count in peritoneal fluid of CLP mice", "format": "in vivo", "details": "subcutaneous injection, versus scrambled peptides", "excerpt": "FIG. 7A is a graph showing cell counts in the peritoneal fluid taken from sepsis mice treated with scrambled peptides or Smaducin-6,\n(§1) In mice with CLP-induced sepsis, the bacterial clearance of Smaducin-6 was examined. Smaducin-6 or the scrambled peptides were subcutaneously injected into CLP mice from which peritoneal fluid was then extracted from the mice, and bacteria in the fluid was counted. […] An examination was made to see whether this bacterial clearance of Smaducin-6 was attributed to the intraperitoneal migration of neutrophils. To this end, 2 and 14 hrs after induction of septic shock by injecting 60 mg/kg of LPS, Smaducin-6 or the scrambled peptides were injected into septic shock mice, and 24 hrs after the induction of septic shock, neutrophils were isolated from the peritoneal cavity using Histopaque-1077 (Sigma). Mouse neutrophils were counted using Trypan Blue (Sigma)."}, "NF-κB": {"tested_on": "NF-κB", "test": "NF-κB-mediated downstream signaling in LPS-stimulated RAW264.7 cells (luciferase, immunoblots)", "format": "cell-based, mouse", "description": "FIG. 4B is a graph showing luciferase activity in RAW264.7 cells transfected with a 5×NF-κB-Luc plasmid after treatment with scrambled peptides (Pal-Scram; 100 nM) or Smaducin-6 and then with LPS,"}, "CXCR2": {"tested_on": "CXCR2", "test": "CXCR2 surface expression on human neutrophils by FACS", "format": "cell-based", "details": "100 nM for 2 hrs, then LPS 2 hrs", "description": "FIG. 7C is a graph showing expression levels of CXCR2 on the surface of human neutrophils treated for 2 hrs with 100 nM scrambled peptides or Smaducin-6 and then for 2 hrs with LPS, as analyzed by FACS, and\nTo investigate the mechanism in which Smaducin-6 promotes peritoneal neutrophil migration, human neutrophils were treated for 2 hrs with 100 nM scrambled peptides or Smaducin-6 in advance of LPS treatment for 2 hrs. The expression of CXCR2, a chemokine receptor related with neutrophil migration, on the cell surface was analyzed using flow cytometry (FACS). Human neutrophils were isolated from normal human peripheral blood using Histopaque-1077 (Sigma) over a density gradient under the permission of the […] of Ajou University, School of Medicine (Suwon, Korea)."}, "neutrophils": {"tested_on": "neutrophils", "test": "Peritoneal neutrophil migration in LPS septic shock mice", "format": "in vivo, BALB/c mice", "details": "LPS 60 mg/kg, injected 2 and 14 hrs after, neutrophils isolated at 24 hrs", "excerpt": "FIG. 7B is a graph showing neutrophil counts in the peritoneal fluid taken from BALB/c mice with LPS-induced septic shock at 24 hrs after LPS injection,\nas §1"}, "[4]": {"tested_on": "BALB/c mice with LPS-induced septic shock", "test": "Survival of mice with LPS-induced septic shock", "format": "in vivo", "details": "LPS 60 mg/kg intraperitoneal, 16 mg/kg injected four times every 12 hrs from 2 hrs after LPS", "description": "FIG. 5D is a graph showing survival rates of BALB/c mice treated with 16 mg/kg Smaducin-6 or scrambled peptides after septic shock is induced by LPS;\nMoreover, therapeutic effects of Smaducin-6 were examined in animal models of septic shock as well as CLP-induced sepsis. In this regard, LPS was intraperitoneally injected at a dose of 60 mg/kg into BALB/c mice, and from two hrs after LPS injection, Smaducin-6 was injected four times at regular intervals of 12 hrs into the mice."}}, "note": "Where no end group is shown, it is not given here. The star is where a group is joined. Palmitoyl = CCCCCCCCCCCCCCCC(=O)*"}
{"substance": "Smaducin-6: palmitic acid conjugated to N-terminus of the 20-amino-acid peptide of Smad6 position 422 to 441, GGRALVVRKVPPGYSIKVFD (SEQ ID NO: 1) (Palmitoyl-GGRALVVRKVPPGYSIKVFD)", "values": [{"measurement": "LPS-induced formation of the IKKε-mediated signaling complex", "setting": "[1]", "result": "suppressed"}, {"measurement": "LPS-induced formation of the IRAK1-mediated signaling complex", "setting": "[1]", "result": "suppressed"}, {"measurement": "LPS-induced formation of the RIP1-mediated signaling complex", "setting": "[1]", "result": "suppressed"}, {"measurement": "LPS-induced GRK2 expression", "setting": "GRK2", "result": "downregualed"}, {"measurement": "survival rate of CLP mice", "setting": "[2]; 12 mg/kg subcutaneous, first injection 2 hrs after CLP, three more times every 12 hrs (FIG. 5A)", "result": 70, "unit": "%"}, {"measurement": "survival rate of CLP mice", "setting": "[2]; 16 mg/kg subcutaneous, first injection 2 hrs after CLP, three more times every 12 hrs (FIG. 5A)", "result": 90, "unit": "%"}, {"measurement": "survival rate of CLP mice", "setting": "[2]; 16 mg/kg, initial injection 2 hrs after CLP (FIG. 5B)", "result": 90, "unit": "%"}, {"measurement": "survival rate of CLP mice", "setting": "[2]; 16 mg/kg, initial injection 4 hrs after CLP (FIG. 5B)", "result": 60, "unit": "%"}, {"measurement": "number of bacteria in the peritoneal fluid", "setting": "[3]", "result": "significantly lower"}, {"measurement": "NF-κB-mediated luciferase gene expression", "setting": "NF-κB; 5xNF-κB-Luc", "result": "suppress"}, {"measurement": "IKKα/β phosphorylation", "setting": "NF-κB; immunoblot", "result": "suppress"}, {"measurement": "IκBα degradation", "setting": "NF-κB; immunoblot", "result": "suppress"}, {"measurement": "expression of CXCR2 on the cell surface", "setting": "CXCR2", "result": "kept the expression of CXCR2 at a normal level"}, {"measurement": "migration of neutrophils to the peritoneal cavity", "setting": "neutrophils", "result": "increased"}, {"measurement": "survival in LPS-induced septic shock", "setting": "[4]", "result": "therapeutic"}]}
